These results are taken from ChEMBL document CHEMBL1148758, “Guanidine and 2-aminoimidazoline aromatic derivatives as alpha(2)-adrenoceptor antagonists, 1: toward new antidepressants with heteroatomic linkers” (J Med Chem, 2007).

Common to all, as to type: functional
Assay [1] addresses T1, Adrenergic receptor alpha-2 (Homo sapiens, UniProt P08913+P18825+P18089).
T1 sequence (P08913 whole entry): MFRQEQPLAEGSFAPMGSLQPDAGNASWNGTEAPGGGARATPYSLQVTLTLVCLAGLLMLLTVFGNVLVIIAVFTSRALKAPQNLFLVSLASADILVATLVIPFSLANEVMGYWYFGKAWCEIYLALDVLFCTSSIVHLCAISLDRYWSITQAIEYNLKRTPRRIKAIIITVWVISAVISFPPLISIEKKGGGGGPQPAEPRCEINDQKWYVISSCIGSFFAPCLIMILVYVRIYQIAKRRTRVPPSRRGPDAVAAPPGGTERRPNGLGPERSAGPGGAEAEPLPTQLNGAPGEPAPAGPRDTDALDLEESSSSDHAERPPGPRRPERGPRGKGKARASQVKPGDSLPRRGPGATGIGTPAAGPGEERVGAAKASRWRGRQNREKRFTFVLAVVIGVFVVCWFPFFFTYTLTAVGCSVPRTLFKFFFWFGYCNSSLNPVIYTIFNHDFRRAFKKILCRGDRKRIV
T1 sequence (P18825 whole entry): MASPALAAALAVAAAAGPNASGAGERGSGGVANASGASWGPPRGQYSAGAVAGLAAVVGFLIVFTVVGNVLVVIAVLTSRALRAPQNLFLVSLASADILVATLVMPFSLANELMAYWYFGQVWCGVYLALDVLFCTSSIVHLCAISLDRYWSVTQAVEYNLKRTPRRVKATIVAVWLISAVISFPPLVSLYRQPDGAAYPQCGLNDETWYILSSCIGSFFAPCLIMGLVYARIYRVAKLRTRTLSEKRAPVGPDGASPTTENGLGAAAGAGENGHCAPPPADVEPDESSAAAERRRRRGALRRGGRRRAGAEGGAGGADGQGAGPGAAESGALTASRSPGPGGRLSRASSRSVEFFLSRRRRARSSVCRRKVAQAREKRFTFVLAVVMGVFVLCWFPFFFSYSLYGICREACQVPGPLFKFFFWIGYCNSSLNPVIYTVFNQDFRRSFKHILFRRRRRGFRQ
T1 sequence (P18089 whole entry): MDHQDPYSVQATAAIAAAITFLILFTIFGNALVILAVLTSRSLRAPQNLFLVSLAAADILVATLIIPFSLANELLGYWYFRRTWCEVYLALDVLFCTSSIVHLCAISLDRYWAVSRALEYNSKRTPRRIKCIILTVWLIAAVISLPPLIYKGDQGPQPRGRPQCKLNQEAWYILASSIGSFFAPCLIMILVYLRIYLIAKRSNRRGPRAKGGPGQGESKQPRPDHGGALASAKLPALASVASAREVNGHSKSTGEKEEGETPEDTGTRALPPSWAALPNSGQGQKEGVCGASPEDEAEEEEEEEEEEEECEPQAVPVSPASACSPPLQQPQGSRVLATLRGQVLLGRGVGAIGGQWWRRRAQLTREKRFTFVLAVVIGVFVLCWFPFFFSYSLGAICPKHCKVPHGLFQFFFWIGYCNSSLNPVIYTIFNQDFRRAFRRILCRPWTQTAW
As to the kind of experiment: Antagonist activity at human brain adrenergic alpha-2 receptor assessed as UK-14304-stimulated [35S]GTPgammaS binding at 10 uM.

Assay [2] has as its system Rattus norvegicus. Kind of assay: Increase in noradrenergic extracellular noradrenaline level in locally administered Sprague-Dawley rat by microdialysis assay.
Assay [3] has as its system Rattus norvegicus. Kind of assay: Increase in noradrenergic extracellular noradrenaline level in Sprague-Dawley rat at 8 mg/kg, ip by microdialysis assay. The conditions noted are these: route intraperitoneal.
For assay [4], the target named is T1, Adrenergic receptor alpha-2. As to the kind of experiment: Agonist activity at human brain adrenergic alpha2 receptor by [35S]GTPgammaS binding assay. On the technique in general: GTPγS resists hydrolysis and so accumulates on activated G proteins.

By EC50 is commonly meant the concentration that produces a half-maximal response. On to `c1cc2c(cc1NC1=NCCN1)OCO2`, for which the EC50 in assay [1] came out at 141 µM. Besides, the Activity amounted to 240% with Rattus norvegicus [2] and 328% in the assay with Rattus norvegicus [3].

Regarding `COC1(C2=NCCN2)COc2ccccc2O1` (stereo not drawn), the Activity in the assay with Rattus norvegicus [2] is recorded as 287%.

In assay [4], `COc1ccc(NC2=NCCN2)cc1` registered an EC50 of 30.4 µM.

As to `c1ccc2c(c1)OCC(C1=NCCN1)O2` (stereo not drawn) [IDAZOXAN], in the assay on Rattus norvegicus [2], the Activity was determined as 235%.

For the molecule `CN(C)c1ccc(NC2=NCCN2)cc1`, the Activity was 316% in the assay with Rattus norvegicus [2] and 192% in the assay with Rattus norvegicus [3].
